Results published in patent publication US11932632B1, “N'-(2-(5-phenyl-1,3,4-oxadiazol-2-ylthio)acetoxy)benzo[d][1,3]dioxole-5 carboximidamide as an antimicrobial compound” (KING FAISAL UNIVERSITY, priority 2023, dated 2024).

Legend:
Type in all cases: cell-based
[1] = system: Chrysosporium keratinophilum; experiment: Agar plate disc-diffusion, antifungal activity by inhibition zone; details: Sabouraud's dextrose agar, 37° C., 72 h, DMSO zone subtracted
Experimental: (§1) The agar plate disc-diffusion method was applied. […] The discs were then placed onto the surface of agar plates (nutrient agar for bacteria and Sabouraud's dextrose agar for fungi) seeded with the test organism. Each plate contained 15 mL of the agar medium, previously seeded with 0.2 mL of the broth culture of each organism pregrown for 18 hours. The plates were incubated at 37° C. for 48 h, and 72 h for fungi. The inhibition zones were measured in mm. Discs impregnated with DMSO were used as a control, and its inhibition zone was subtracted from the tested compound actual inhibition zone.
(§2) The results of the antimicrobial testing can be observed in Tables 1 and 2, below, using ciprofloxacin as a reference.

[2] = system: Aspergillus flavus; experiment: as above; details: Sabouraud's dextrose agar, 37° C., 72 h, DMSO zone subtracted
Experimental: as §1, §2

[3] = system: Staphylococcus aureus; experiment: Agar plate disc-diffusion, antibacterial activity by inhibition zone; details: nutrient agar, 37° C., 48 h, DMSO zone subtracted
Experimental: as §1, §2

[4] = system: Escherichia coli; experiment: as above; details: nutrient agar, 37° C., 48 h, DMSO zone subtracted
Experimental: as §1, §2

[5] = system: Bacillus Cereus; experiment: as above; details: nutrient agar, 37° C., 48 h, DMSO zone subtracted
Experimental: as §1, §2

[6] = system: Pseudomonas aeruginosa; experiment: as above; details: nutrient agar, 37° C., 48 h, DMSO zone subtracted
Experimental: as §1, §2

[7] = A = concentration of comp. = 10,000 μL
[8] = B = concentration of comp. = 30.000 μL
[9] = C = concentration of comp. = 50,000 μL

Structure (SMILES): N/C(=N\OC(=O)CSc1nnc(-c2ccccc2)o1)c1ccc2c(c1)OCO2 [Compound 3, N′-(2-(5-phenyl-1,3,4-oxadiazol-2-ylthio)acetoxy)benzo[d][1,3]dioxole-5-carboximidamide]
- inhibition zone, Chrysosporium keratinophilum, A [1, 7]: 25 mm
- inhibition zone, Chrysosporium keratinophilum, B [1, 8]: 27 mm
- inhibition zone, Chrysosporium keratinophilum, C [1, 9]: 42 mm
- inhibition zone, Aspergillus flavus, A [2, 7]: 21 mm
- inhibition zone, Aspergillus flavus, B [2, 8]: 25 mm
- inhibition zone, Aspergillus flavus, C [2, 9]: 36 mm
- inhibition zone, Staphylococcus aureus, A [3, 7]: 18 mm
- inhibition zone, Staphylococcus aureus, B [3, 8]: 21 mm
- inhibition zone, Staphylococcus aureus, C [3, 9]: 37 mm
- inhibition zone, Escherichia coli, A [4, 7]: 29 mm
- inhibition zone, Escherichia coli, B [4, 8]: 33 mm
- inhibition zone, Escherichia coli, C [4, 9]: 49 mm
- inhibition zone, Bacillus Cereus, A [5, 7]: 25 mm
- inhibition zone, Bacillus Cereus, B [5, 8]: 29 mm
- inhibition zone, Bacillus Cereus, C [5, 9]: 39 mm
- inhibition zone, Pseudomonas aeruginosa, A [6, 7]: 24 mm
- inhibition zone, Pseudomonas aeruginosa, B [6, 8]: 27 mm
- inhibition zone, Pseudomonas aeruginosa, C [6, 9]: 39 mm
